Columns and labels:
[1] = molecular target: T1, Prdx I (recombinant human peroxiredoxin I) (Homo sapiens, UniProt Q06830); assay: surface plasmon resonance (Biacore T200), single-cycle kinetics; assay type: binding; conditions: read-out: dissociation constant
T1 construct: gene PRDX1; full-length, N-terminal His6 tag (pET28a), expressed in E. coli BL21, purified
T1 sequence (Q06830 2-199): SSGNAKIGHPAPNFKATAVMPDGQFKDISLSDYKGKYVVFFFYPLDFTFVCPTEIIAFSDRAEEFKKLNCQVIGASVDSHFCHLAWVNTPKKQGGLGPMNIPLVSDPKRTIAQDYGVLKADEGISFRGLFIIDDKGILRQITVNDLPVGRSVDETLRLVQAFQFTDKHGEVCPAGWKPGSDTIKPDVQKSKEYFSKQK
Text: surface plasmon resonance (Biacore T200), single-cycle kinetics on Prdx I (recombinant human peroxiredoxin I) | H7 rapidly associated and disassociated from the immobilized Prdx I at a dissociation constant of […]

[2] = molecular target: T2, Prdx I (endogenous, NB4 cell lysate) (Homo sapiens, UniProt Q06830); assay: cellular thermal shift assay (CETSA) in lysate, Western blot; assay type: biochemical; conditions: NB4 lysate in PBS, heated 3 min at different temperatures (75.9°C for dose dependence)
T2 construct: gene PRDX1; endogenous untagged protein in NB4 cell lysate, detected by Western blot
T2 sequence (Q06830 2-199): T1 sequence (Q06830 2-199)

[3] = molecular target: T1, Prdx I (recombinant human peroxiredoxin I); assay: peroxidase activity, Trx-Trx reductase-NADPH-coupled spectrophotometric assay; assay type: biochemical

Kd [1]: 1.57 µM
IC50 [3]: 7.85 µM
SMILES: CCc1ccc(S(=O)(=O)N=C2C=CC(=O)c3ccccc32)cc1 [H7]
cellular thermal shift assay (CETSA) in lysate, Western blot [2]: addition of H7 but not DMSO into the cell lysates increased the stability of Prdx I
